Source: patent publication US10308631B2, “Selective anti-cancer compounds” (NATIONAL UNIVERSITY OF SINGAPORE, priority 2015, dated 2019)

How the values were obtained:
[1] = tested on: non-transformed normal and oncogene-transformed human fibroblast BJ cell lines; test: Chemoprotection from paclitaxel, Annexin V/PI FACS; format: cell-based; conditions: paclitaxel treatment alone, 50 nM
Procedure: Normal and transformed BJ cells were treated with Compound 25 at 5 μM. 48 h after treatment, cells were further treated with (A) 50 nM paclitaxel (PTX) or (B) etoposide, at the concentrations shown, for additional 48 or 72 h, respectively. A: cells were collected, stained with Annexin V together with propidium iodide (PI) and subjected to FACS analysis. […] Student's t-test was performed to determine the statistical significance (***=P<0.0001, **=P<0.001, *=P<0.05, n.s.=no significance).
The chemoprotective efficacies of the Compounds in Group 2 were further evaluated by measuring their ability to protect non-transformed normal cells, but not cancer and oncogene-transformed counterparts, from the most well-known as well as clinically-relevant chemotherapeutic agents, paclitaxel and etoposide. To determine this, isogenic non-transformed normal and oncogene-transformed human fibroblast BJ cell lines, cultured in DMEM supplemented with 10% FBS, were pre-treated with Compound 25 (a166—Group 2) at 5 μM. 48 h after treatment, cells were further treated with paclitaxel (PTX; FIG. 13A) or etoposide (FIG. 13B) for an additional 72 h. […] For etoposide, cell viability was determined using MTT assay and plotted in comparison with DMSO control vehicle with mean values±S.D. (n=4).

[2] = tested on: HCT-15 human colon adenocarcinoma xenografts; test: Tumour xenograft efficacy, tumour volume; format: in vivo, mice; conditions: HCT15 xenografts; intravenously 40 mg/kg, 3 times every 4 days; vs vehicle
Procedure: A, B: is a graphical representation of tumour volumes estimated periodically as indicated. Mice bearing established tumour xenografts using HCT15 or MDA-MB-231 cells were treated orally (PO) or intraperitoneally (IP) twice a day with the indicated doses of Compound 1 or Compound 16 for 12 or 15 days. Paclitaxel (PTX) was given intravenously at dose of 40 mg/kg, 3 times every 4 days. Error bars show ±S.D. from mean tumour volumes obtained from 6 mice. Student's t-test was performed to determine the statistical significance (*=p<0.005). C: is a bar graph showing quantification of cells (n>100 per condition) with misaligned chromosomes and multipolar mitotic-spindles. […] tumour sections treated with Compound 16 (80 mg/kg) or control vehicle for 12 days were stained with anti-β-tubulin antibodies and DAPI. The percentage of cells with misaligned chromosomes and multipolar mitotic-spindles was quantified and plotted with mean values±S.D.
Mice bearing established tumor xenografts using HCT15 or MDA-MB-231 cells were treated orally (PO) or intraperitoneally (IP) twice a day with the indicated doses of Compound 1 or its derivative Compound 16 (b5) for 12 or 15 days, respectively. For comparison, paclitaxel (PTX) was given intravenously to mice bearing established tumour xenografts using HCT15 at dose of 40 mg/kg, 3 times every 4 days.

## CC(=O)O[C@H]1C(=O)[C@@]2(C)[C@H]([C@H](OC(=O)c3ccccc3)[C@]3(O)C[C@H](OC(=O)[C@H](O)[C@@H](NC(=O)c4ccccc4)c4ccccc4)C(C)=C1C3(C)C)[C@]1(OC(C)=O)CO[C@@H]1C[C@@H]2O [paclitaxel, reference compound]
[1]
  selectivity of cell death for oncogene-transformed BJ cells: showed a minimal selectivity for oncogene-transformed BJ cells
[2]
  anti-tumour effect (tumour volume): did not show significant anti-tumour effects
